Consider 7 compounds from US5081119A, “Use of 5-alkylpyridazine derivatives as drugs active on the cholinergic system” (priority 1989, dated 1992).

One experiment has as its system cholinergic receptors. Nature of the experiment: Ligand properties for the cholinergic receptors (subsequent studies). It is filed as binding.
The conditions of experiment [1]: French patents 2 141 697, 2 510 997, 2 510 998; cited from earlier work.
Experiment [2] has as its target T1, M1-type muscarinic cholinergic receptor (Rattus norvegicus, UniProt P08482).
T1 construct: on a homogenate of rat hippocampus; from tissue; host or cells: rat hippocampus homogenate
T1 sequence (P08482 1-460): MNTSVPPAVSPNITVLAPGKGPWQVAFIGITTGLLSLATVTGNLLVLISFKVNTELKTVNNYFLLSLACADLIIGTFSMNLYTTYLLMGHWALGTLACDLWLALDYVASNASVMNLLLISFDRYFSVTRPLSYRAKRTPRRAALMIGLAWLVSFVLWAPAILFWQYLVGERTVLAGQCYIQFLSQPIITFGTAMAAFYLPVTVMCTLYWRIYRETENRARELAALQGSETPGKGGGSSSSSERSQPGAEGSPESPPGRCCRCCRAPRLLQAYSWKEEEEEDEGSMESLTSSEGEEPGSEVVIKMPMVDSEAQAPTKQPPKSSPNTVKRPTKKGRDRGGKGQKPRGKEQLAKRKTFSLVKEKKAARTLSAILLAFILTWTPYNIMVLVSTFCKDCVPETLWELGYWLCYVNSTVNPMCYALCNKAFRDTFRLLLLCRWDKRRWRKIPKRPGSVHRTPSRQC
The experiment is described as follows: Affinity for M1-type muscarinic cholinergic receptor: displacement of [3H]-pirenzepine on rat hippocampus homogenate. It is filed as binding. Particulars: for IC50: displacement of [3H]-PZ (1 nM), rat hippocampus homogenate, 2 h at 4° C., pH 7.40; for r = M2/M1 (ratio of the M2 and M1 IC50 values, selectivity towards the M1 receptor): ratio of IC50 3H-NMS (guinea-pig ileum) to IC50 3H-PZ (rat hippocampus). The source says: (§1) In vitro, we studied the interaction of the products (II) with tritiated pirenzepine and tritiated N-methylscopolamine bound with a high affinity to membranes of rat hippocampus and membranes of smooth muscle of guinea-pig ileum, respectively.
A) Test for affinity for the M1 -type muscarinic cholinergic receptor
The interaction of molecules with the M1 -type muscarinic receptors was studied by in vitro measurement, on a homogenate of rat hippocampus, of the displacement of tritiated pirenzepine ([^3 H]-PZ) from its specific binding sites. Aliquots (100 μl) of a 5% (w/v) homogenate of rat hippocampus in an Na2 HPO4 buffer (50 mM, pH 7.40) are incubated for 2 h at 4° C. in the presence of [^3 H]-PZ (76 Ci/mmol; final concentration: 1 nM) and increasing concentrations of test products. The final volume is 2 ml. The reaction is stopped by centrifugation for 10 min at 50,000×g. After decantation and washing of the residues, the bound radioactivity is counted by liquid scintillation. The non-specific binding is determined in the presence of 10 μmol/l of atropine sulfate. The 50% inhibitory concentration (IC50) is determined graphically (Ref.: Watson J. D., Roeskoe W. R. and Yamamura H. I., Life Sci., 31, 2019-2029, 1982).
(§2) Table 3 indicates the affinities of the products of the invention for the M1 and M2 receptors. The results are expressed as 50 percent inhibitory concentrations (IC50), i.e. the concentration (in μM) which causes a 50% inhibition of the binding of the tritiated ligand to the membrane receptors. The IC50 for displacement of ^3 H-pirenzepine represents the affinity for the M1 receptor; the IC50 for displacement of ^3 H-NMS represents the affinity for the M2 receptor.
(§3) The Table also indicates, in the 3rd column, the ratio r of the M2 and M1 IC50 values, which expresses the selectivity of the products towards the M1 receptor.

The target in experiment [3] is T2, M2-type muscarinic cholinergic receptor (Cavia porcellus, UniProt H0VRN8).
T2 construct: on a homogenate of smooth muscle of guinea-pig ileum; from tissue; host or cells: guinea-pig ileum smooth muscle homogenate
T2 sequence (H0VRN8 1-466): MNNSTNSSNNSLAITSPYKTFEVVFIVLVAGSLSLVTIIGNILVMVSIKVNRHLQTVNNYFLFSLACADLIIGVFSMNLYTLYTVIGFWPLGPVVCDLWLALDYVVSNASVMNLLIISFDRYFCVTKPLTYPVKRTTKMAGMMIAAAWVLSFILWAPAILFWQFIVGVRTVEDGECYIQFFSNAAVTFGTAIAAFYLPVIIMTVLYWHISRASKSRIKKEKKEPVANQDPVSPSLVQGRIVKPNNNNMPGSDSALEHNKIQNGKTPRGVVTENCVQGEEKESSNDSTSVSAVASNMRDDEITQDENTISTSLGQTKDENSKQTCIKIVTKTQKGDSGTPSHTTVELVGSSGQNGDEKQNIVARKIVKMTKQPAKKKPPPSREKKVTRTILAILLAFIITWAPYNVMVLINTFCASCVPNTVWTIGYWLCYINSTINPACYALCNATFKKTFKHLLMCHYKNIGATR
Nature of the experiment: Affinity for M2-type muscarinic cholinergic receptor: displacement of [3H]-N-methylscopolamine on guinea-pig ileum smooth muscle homogenate. It is filed as binding. Particulars: displacement of [3H]-NMS (0.3 nM), 20 min at 30° C., pH 7.5.
Text: as §1
B) Test for affinity for the M2 -type muscarinic cholinergic receptor.
The interaction with the M2 -type muscarinic receptors was studied by in vitro measurement, on a homogenate of smooth muscle of guinea-pig ileum, of the displacement of tritiated N-methylscopolamine ([^3 H]-NMS) from its specific binding sites. Aliquots (50 μl) of a 0.625% (w/v) homogenate of smooth guinea-pig muscle in HEPES buffer (20 mM) containing NaCl (100 mM) and MgCl2 (10 mM) (final pH: 7.5) are incubated for 20 min at 30° C. in the presence of [^3 H]-NMS (85 Ci/mmol; final concentration: 0.3 nM) and increasing concentrations of test products. The final volume is 1 ml. The reaction is stopped by centrifugation for 5 min at 15,000×g. The non-specific binding is determined in the presence of 10 μmol-l of atropine sulfate (Ref.: Hammer R., Berrie C. P., Birdsall N. I. M., Burgen A. S. V. and Hulme E. C., Nature, 283, 90-92, 1980; Hulme E. C., Birdsall N. I. M., Burgen A. S. V. and Mettha P., Mol. Pharmacol., 14, 737-750, 1978).
as §2, §3

For experiment [4], the system named is rotational behavior induced by intrastriatal pirenzepine (M1 central muscarinic cholinergic receptors). The experiment is described as follows: Antagonism of rotational behavior induced by intrastriatal injection of pirenzepine in mice. It counts as in vivo, mice (female, Swiss, CD 1 printed as DC 1, Charles River). Particulars: 3 mg/kg p.o., 4 hours before pirenzepine 1 μg into right striatum; 10 animals per dose; Student t test, *p < 0.05, **p < 0.01. Here is the method: The compounds of formula (II) were also subjected to an in vivo study. Pirenzepine (PZ) is a specific antagonist of ligands for the M1 central muscarinic cholinergic receptors. The intrastriatal injection of PZ into mice induces rotational behavior. The antagonism of this behavior by the test products was studied. The products according to the invention are administered orally after solubilization in distilled water or suspension in a 5% solution of gum arabic. The control animals receive an injection of the pure solvent under the same conditions. The animals used are female mice (Swiss, DC 1, Charles River, France) with a body weight of between 25 and 30 grams. Pirenzepine is dissolved in a phosphate buffer; the pH of the solution is 6. The test products or their solvents are administered orally in a volume of 0.4 ml per 20 g of body weight, 4 hours before a direct injection of pirenzepine at a dose of 1 μg of product in 1 μl of solvent into the right striatum of the mouse, according to the method described by P. Worms et al. in Psychopharmacology 1987, 93, 489-493. The number of contralateral rotations (rotations in the opposite direction to the side injected) was counted for three 2-minute periods after the injection of pirenzepine: minutes 2 to 4, 8 to 10 and 13 to 15. Each treatment involves 10 animals per dose. For each treatment, the total number of rotations and the percentage antagonism compared with the control group are calculated. The results obtained with the products of formula (II) administered orally at a dose of 3 mg/kg of body weight are collated in Table 4.

Regarding `Cc1cc(NCCN2CCOCC2)nnc1-c1ccccc1` [(I), 3-(2-morpholinoethylamino)-5-methyl-6-phenylpyridazine], the “properties as a ligand for the cholinergic receptors (in words)” value with cholinergic receptors is given as “possesses valuable properties as a ligand for the cholinergic receptors”. The antidepressant properties entry in experiment [1] is recorded as “antidepressant properties of moderate intensity”.

`Cc1cc(NCCN2CCOCC2)nnc1-c1ccccc1.O=C(O)C(=O)O.O=C(O)C(=O)O` [CM 30316, 3-(2-Morpholinoethylamino)-5-methyl-6-phenylpyridazine dioxalate]: in experiment [2], the half-maximal inhibitory concentration (IC50) is 550 nM; the “r = M2/M1 (ratio of the M2 and M1 IC50 values, selectivity towards the M1 receptor)” value is listed as 182. This compound also showed a half-inhibitory concentration (IC50) in experiment [3] of 100000 nM. Further, in experiment [4], the “% inhibition of rotations” value is -20%.

As for `CCN(CC)CCNc1cc(C)c(-c2ccccc2)nn1` [SR 96150 A], in experiment [2], the 50% inhibitory concentration (IC50) was found to be 60 nM; the “r = M2/M1 (ratio of the M2 and M1 IC50 values, selectivity towards the M1 receptor)” value is 47. Besides, the IC50 in experiment [3] stood at 2800 nM. Besides, the “% inhibition of rotations” value in experiment [4] is -49%.

For the compound `CCc1cc(NCCN2CCOCC2)nnc1-c1ccccc1` [SR 96169 A], in experiment [2], the IC50 is 3700 nM; the “r = M2/M1 (ratio of the M2 and M1 IC50 values, selectivity towards the M1 receptor)” value is given as 8. In experiment [3], the IC50 is 30000 nM. Besides, the “% inhibition of rotations” value in experiment [4] is -46%.

For the compound `CCc1cc(NCCN(CC)CC)nnc1-c1ccccc1` [SR 96180 A], in experiment [2], the 50% inhibitory concentration (IC50) came out at 70 nM; the “r = M2/M1 (ratio of the M2 and M1 IC50 values, selectivity towards the M1 receptor)” value came to 14. In experiment [3], this compound showed an IC50 of 1000 nM. For the same compound, the “% inhibition of rotations” value in experiment [4] is reported as -38%.

For `CCCc1cc(NCCN2CCOCC2)nnc1-c1ccccc1` [SR 96186 A], in experiment [2], the half-maximal inhibitory concentration (IC50) was 600 nM; the “r = M2/M1 (ratio of the M2 and M1 IC50 values, selectivity towards the M1 receptor)” value came to 30. The same compound had an IC50 in experiment [3] of 18000 nM. For the same compound, the “% inhibition of rotations” value in experiment [4] was -41%.

As to `CCCc1cc(NCCN(CC)CC)nnc1-c1ccccc1` [SR 96187 A], the IC50 came to 400 nM in experiment [2] and 3500 nM in experiment [3]. Further, the “r = M2/M1 (ratio of the M2 and M1 IC50 values, selectivity towards the M1 receptor)” value in experiment [2] is on record as 9. The “% inhibition of rotations” value in experiment [4] was -37%.

By IC50 is commonly meant the concentration that gives 50% inhibition. Low readings indicate greater potency, high ones weaker potency.
